1 molecule from patent publication US20180193209A1, “A POLYMER PRODUCT AND PREPARATION THEROF” (SINGAPORE HEALTH SERVICES PTE LTD., priority 2015, published 2018) can be followed below.

The data set deals with Human dermal fibroblast cells. Nature of the data set: MTS-based cell viability assay on fiber mats. The settings on record: 24 hours culture. The procedure:
Human dermal fibroblast cells were cultured according to the procedures recited in Biomacromolecules, 2005, 6 (5), pp 2583-2589. Briefly, cells were cultured in DMEM medium (Gibco®) supplemented with 10% (v/v) fetal bovine serum, 50 U/ml penicillin and 50 μg/ml streptomycin in a humidified incubator at 37° C. and 5% CO2. All the cell culture reagents were obtained from Life Technologies Corporation (Singapore). For biocompatibility experiments, cells were seeded onto the coverslips precoated with scaffolds and placed at the bottom of the 12-well plates (Nunc®) at a density of 10×10^4 cells/well and allowed to grow for 24 hours before analysis. For the negative control well(s), nocodazole was added to a final concentration of 5 μg/mL in the culture medium.
Cell viability was determined using CellTier 96® Aqueous One solution cell proliferation assay kit according to the manufacturer's instruction (Promega Corporation, Madison, Wis.), and according to the procedures recited in Kim B J et al., Reinforced multifunctionalized nanofibrous scaffolds using mussel adhesive proteins, Angew Chem Int Ed Eng, 2012; 51:675-8. This assay evaluates mitochondrial function by measuring the ability of viable cells to reduce MTS ((3-(4,5-dimethylthiazol-2-yl)-5-(3-carboxymethoxyphenyl)-2-(4-sulfophenyl)-2H-tetrazolium)) into a quantifiable […] formazon product. […]

SMILES strings stand for the structures.

Consider `COC(=O)Nc1nc2ccc(C(=O)c3cccs3)cc2[nH]1` [nocodazole], for which the “effect on cell viability (MTS)” value is “significant cell death”.
